Where two headings read alike, the source gives them in different places.
Assays:
[1] = target: BRD4(BD1) (Homo sapiens (Human), UniProt O60885); test: In vitro enzyme inhibition assay (BRD4 AlphaScreen); type: binding
Summary of the method: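 His-tagged BRD4 tested by AlphaScreen for binding of biotinylated H4K5/8/12/16-tetraacetyl peptide. After 20 min at room temperature, streptavidin donor and nickel chelate acceptor beads added (5 μg/mL final each). IC50 determined.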

[2] = test system: Raji, human Burkitts lymphoma cells; test: Cell-MTS proliferation assay, Raji; type: cell-based; settings: Homo sapiens, 168 hr
Summary of the method: (§1)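 Seeded for ~90% confluence at 7 days (Raji 15,000, HL-60 5,000, NCI-H460 3,000 cells/well); compound added 24 h post-plating as 11-point dilution, 100 μM to 2.0 nM final.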

[3] = test system: HL-60, human proleukemia cells; test: Cell-MTS proliferation assay, HL-60; type: cell-based; settings: Homo sapiens, 168 hr
Summary of the method: as §1

[4] = test system: NCI-H460, human non-small cell lung cancer cells; test: Cell-MTS proliferation assay, NCI-H460; type: cell-based; settings: Homo sapiens, 168 hr
Protocol: The Cell-MTS assay is a 7-day plate-based colorimetric assay which quantifies the amount of newly generated NADH in the presence or absence of test compound. The NADH level is used for the quantification of cancer cell proliferation.
Established cancer cell lines with a variety of driving mutations were obtained from American Type Culture Collection (ATCC) and routinely passaged according to ATCC protocols. For routine assay, these cells were seeded at densities which enabled ˜90% confluence after 7 days of culture. Raji, human Burkitts lymphoma cells, (cMYC) were seeded at 15,000 cells per 96-well. HL-60, human proleukemia cells, (NRAS, p16, p53, c-Myc amplified) were seeded at 5,000 cells per 96-well. NCI-H460, human non-small cell lung cancer cells, (KRAS, PIK3CA, STLK11, p16) were seeded at 3,000 cells per 96-well. 24 hr after plating, cells received an 11-point dilution of test compound with final concentration ranges from 100 μM to 2.0 nM. […] At the end of this incubation period, 80 μL of media is removed and 20 μL of CellTiter 96® AQueous Non-Radioactive Cell Proliferation Assay soln (Promega) was added. The cells were incubated until the OD490 was >0.6. IC50 values were calculated using the IDBS XLfit software package and include background subtracted OD490 values and normalization to DMSO controls. Cellular proliferation IC50 values were uploaded and archived using the Chem Biography Platform.

[5] = Raji, Cell-MTS, class symbols A/B/C
[6] = HL-60, Cell-MTS, class symbols A/B/C
[7] = NCI-H460, Cell-MTS, class symbols A/B/C
[8] = in vitro enzyme inhibition assay
[9] = Cell-MTS proliferation, Raji cells
[10] = Cell-MTS proliferation, HL-60 cells
[11] = Cell-MTS proliferation, NCI-H460 cells
[12] = NCI-H460, Cell-MTS proliferation

CCS(=O)(=O)Nc1ccc(Cl)c(-c2cn(C)c(=O)c3ccc(-c4cnn(C)c4)cc23)c1 [Example 45, N-[4-chloro-3-[2-methyl-6-(1-methylpyrazol-4-yl)-1-oxoisoquinolin-4-yl]phenyl]ethanesulfonamide]
IC50 ([1]; class symbols A/B/C): < 500 nM
IC50 [2, 5]: < 500 nM
IC50 [3, 6]: < 500 nM
IC50 [4, 7]: 0.5 to 5 µM

CCS(=O)(=O)Nc1ccc(Oc2ccc(F)cc2F)c(-c2cn(C)c(=O)cc2F)c1 [Example 139, N-[4-(2,4-difluorophenoxy)-3-(4-fluoro-1-methyl-6-oxopyridin-3-yl)phenyl]ethanesulfonamide]
IC50 ([1]; class symbols A/B/C): < 500 nM
IC50 [2, 5]: < 500 nM
IC50 [3, 6]: < 500 nM
IC50 [4, 7]: > 5 µM

COCC1COc2cc(S(C)(=O)=O)cc(-c3cc(C)c(=O)n(C)c3)c2O1 (stereo not shown) [Example 498, 5-[3-(methoxymethyl)-7-methylsulfonyl-2,3-dihydro-1,4-benzodioxin-5-yl]-1,3-dimethylpyridin-2-one]
IC50 [1, 8]: < 500 nM
IC50 [2, 9]: > 5000 nM
IC50 [3, 10]: 500 to 5000 nM
IC50 [4, 11]: > 5 µM

CCS(=O)(=O)c1ccc(OCC2CC2)c(-c2cn(C)c(=O)c3oc(C)cc23)c1 [Example 270, 4-[2-(cyclopropylmethoxy)-5-ethylsulfonylphenyl]-2,6-dimethylfuro[2,3-c]pyridine-7-one]
IC50 [1, 8]: < 500 nM
IC50 ([2]; Raji, Cell-MTS proliferation): < 500 nM
IC50 ([3]; HL-60, Cell-MTS proliferation): < 500 nM
IC50 [4, 12]: 0.5 to 5 µM

CCOc1sc(S(=O)(=O)CC)cc1-c1cn(C)c(=O)c2ccccc12 [Example 204, 4-(2-ethoxy-5-ethylsulfonylthiophen-3-yl)-2-methylisoquinolin-1-one]
IC50 [1, 8]: < 500 nM
IC50 ([2]; Raji, Cell-MTS proliferation): 500 to 5000 nM
IC50 ([3]; HL-60, Cell-MTS proliferation): 500 to 5000 nM
IC50 [4, 12]: > 5 µM

CCS(=O)(=O)c1ccc(OCC2CC2)c(-c2cn(C)c(=O)c3ccoc23)c1 [Example 378, 7-[2-(cyclopropylmethoxy)-5-ethylsulfonylphenyl]-5-methylfuro[3,2-c] pyridin-4-one]
IC50 [1, 8]: < 500 nM
IC50 [2, 9]: < 500 nM
IC50 [3, 10]: < 500 nM
IC50 [4, 11]: 0.5 to 5 µM

CC#CCOc1ccc(S(C)(=O)=O)cc1-c1cc(C)c(=O)n(C)c1 [Example 388, 5-(2-but-2-ynoxy-5-methylsulfonylphenyl)-1,3-dimethylpyridin-2-one]
IC50 [1, 8]: < 500 nM
IC50 [2, 9]: < 500 nM
IC50 [3, 10]: < 500 nM
IC50 [4, 11]: > 5 µM

Cc1cc(-c2cc(S(C)(=O)=O)ccc2NC2CCOCC2)cn(C)c1=O [Example 436, 1,3-dimethyl-5-[5-methylsulfonyl-2-(oxan-4-ylamino)phenyl]pyridin-2-one]
IC50 [1, 8]: < 500 nM
IC50 [2, 9]: 500 to 5000 nM
IC50 [3, 10]: < 500 nM
IC50 [4, 11]: > 5 µM

Cn1cc(-c2cc(S(C)(=O)=O)ccc2O[C@H]2CC[C@H](O)CC2)c2ccc(F)cc2c1=O [Example 187, 7-fluoro-4-[2-(trans-4-hydroxycyclohexyl)oxy-5-methylsulfonylphenyl]-2-methylisoquinolin-1-one]
IC50 [1, 8]: < 500 nM
IC50 ([2]; Raji, Cell-MTS proliferation): < 500 nM
IC50 ([3]; HL-60, Cell-MTS proliferation): < 500 nM
IC50 [4, 12]: > 5 µM

Cn1cc(-c2cc(S(C)(=O)=O)ccc2OCC2CC2)c2cc(C(N)=O)sc2c1=O [Example 267, 4-[2-(cyclopropylmethoxy)-5-methylsulfonylphenyl]-6-methyl-7-oxothieno[2,3-c]pyridine-2-carboxamide]
IC50 [1, 8]: < 500 nM
IC50 ([2]; Raji, Cell-MTS proliferation): 500 to 5000 nM
IC50 ([3]; HL-60, Cell-MTS proliferation): < 500 nM
IC50 [4, 12]: > 5 µM

Cn1cc(-c2cc(S(C)(=O)=O)ccc2OCC2CC2)cc(Oc2ccccc2)c1=O [Example 295, 5-[2-(cyclopropylmethoxy)-5-methylsulfonylphenyl]-1-methyl-3-phenoxypyridin-2-one]
IC50 [1, 8]: < 500 nM
IC50 ([2]; Raji, Cell-MTS proliferation): 500 to 5000 nM
IC50 ([3]; HL-60, Cell-MTS proliferation): 500 to 5000 nM
IC50 [4, 12]: 0.5 to 5 µM

Cc1cc(-c2cc(S(C)(=O)=O)ccc2OCC2CC2)nn(C)c1=O [Example 136, 6-[2-(cyclopropylmethoxy)-5-methylsulfonylphenyl]-2,4-dimethylpyridazin-3-one]
IC50 ([1]; class symbols A/B/C): 500 to 5000 nM
IC50 [2, 5]: > 5000 nM
IC50 [3, 6]: 500 to 5000 nM
IC50 [4, 7]: > 5 µM

Cc1cc(-c2cc(S(C)(=O)=O)ccc2OCC2CC2)cn(Cc2cocn2)c1=O [Example 246, 5-[2-(cyclopropylmethoxy)-5-methylsulfonylphenyl]-3-methyl-1-(1,3-oxazol-4-ylmethyl)pyridin-2-one]
IC50 [1, 8]: 500 to 5000 nM
IC50 ([2]; Raji, Cell-MTS proliferation): > 5000 nM
IC50 ([3]; HL-60, Cell-MTS proliferation): > 5000 nM
IC50 [4, 12]: > 5 µM

Cn1cc(-c2cc(CS(C)(=O)=O)ccc2Oc2ccc(F)cc2F)n2cncc2c1=O [Example 372, 5-[2-(2,4-difluorophenoxy)-5-(methylsulfonylmethyl)phenyl]-7-methylimidazo[1,5-a]pyrazin-8-one]
IC50 [1, 8]: < 500 nM
IC50 ([2]; Raji, Cell-MTS proliferation): < 500 nM
IC50 ([3]; HL-60, Cell-MTS proliferation): < 500 nM
IC50 [4, 12]: > 5 µM

COCCn1cc(-c2cc(S(C)(=O)=O)ccc2OCC2CC2)cc(C)c1=O [Example 244, 5-[2-(cyclopropylmethoxy)-5-methylsulfonylphenyl]-1-(2-methoxyethyl)-3-methylpyridin-2-one]
IC50 [1, 8]: 500 to 5000 nM
IC50 ([2]; Raji, Cell-MTS proliferation): > 5000 nM
IC50 ([3]; HL-60, Cell-MTS proliferation): 500 to 5000 nM
IC50 [4, 12]: > 5 µM

CCS(=O)(=O)c1ccc(Oc2ccc(F)cc2F)c(-c2cn(C)c(=O)c3cncn23)c1 [Example 376, 5-[2-(2,4-difluorophenoxy)-5-ethylsulfonylphenyl]-7-methylimidazo[1,5-a]pyrazin-8-one]
IC50 [1, 8]: < 500 nM
IC50 [2, 9]: 500 to 5000 nM
IC50 [3, 10]: < 500 nM
IC50 [4, 11]: > 5 µM

CCCOc1ccc(S(=O)(=O)CC)cc1-c1cn(C)c(=O)c2cnc(-c3cnn(C)c3)nc12 [Example 225, 8-(5-ethylsulfonyl-2-propoxyphenyl)-6-methyl-2-(1-methylpyrazol-4-yl)pyrido[4,3-d]pyrimidin-5-one]
IC50 [1, 8]: < 500 nM
IC50 ([2]; Raji, Cell-MTS proliferation): < 500 nM
IC50 ([3]; HL-60, Cell-MTS proliferation): < 500 nM
IC50 [4, 12]: > 5 µM

CCS(=O)(=O)c1ccc(NCC2CC2)c(-c2cn(C)c(=O)c3cc(F)ccc23)c1 [Example 195, 4-[2-(cyclopropylmethylamino)-5-ethylsulfonylphenyl]-7-fluoro-2-methylisoquinolin-1-one]
IC50 [1, 8]: < 500 nM
IC50 ([2]; Raji, Cell-MTS proliferation): < 500 nM
IC50 ([3]; HL-60, Cell-MTS proliferation): < 500 nM
IC50 [4, 12]: > 5 µM

CCS(=O)(=O)Nc1ccc(Oc2ccc(F)cc2F)c(-c2cc(C(F)(F)F)c(=O)n(C)c2)c1 [Example 138, N-[4-(2,4-difluorophenoxy)-3-[1-methyl-6-oxo-5-(trifluoromethyl)pyridine-3-yl]phenyl]ethanesulfonamide]
IC50 ([1]; class symbols A/B/C): < 500 nM
IC50 [2, 5]: < 500 nM
IC50 [3, 6]: < 500 nM
IC50 [4, 7]: > 5 µM

Cn1cc(-c2cc(CS(C)(=O)=O)ccc2OCC(F)(F)F)cc(Cl)c1=O [Example 418, 3-chloro-1-methyl-5-[5-(methylsulfonylmethyl)-2-(2,2,2-trifluoroethoxy)phenyl]pyridin-2-one]
IC50 [1, 8]: < 500 nM
IC50 [2, 9]: 500 to 5000 nM
IC50 [3, 10]: < 500 nM
IC50 [4, 11]: > 5 µM

Cn1cc(-c2cc(S(C)(=O)=O)ccc2NCC2CC2)c2ccccc2c1=O [Example 194, 4-[2-(cyclopropylmethylamino)-5-methylsulfonylphenyl]-2-methylisoquinolin-1-one]
IC50 [1]: < 500 nM
IC50 ([2]; Raji, Cell-MTS proliferation): < 500 nM
IC50 ([3]; HL-60, Cell-MTS proliferation): < 500 nM
IC50 [4, 12]: > 5 µM

CCS(=O)(=O)Nc1ncc(Oc2ccc(F)cc2F)c(-c2cc(C)c(=O)n(C)c2)n1 [Example 169, N-[5-(2,4-difluorophenoxy)-4-(1,5-dimethyl-6-oxopyridin-3-yl)pyrimidin-2-yl]ethanesulfonamide]
IC50 [1, 8]: < 500 nM
IC50 ([2]; Raji, Cell-MTS proliferation): < 500 nM
IC50 ([3]; HL-60, Cell-MTS proliferation): < 500 nM
IC50 [4, 12]: > 5 µM
